Counter-ions that a name gives are not always drawn.
Tests used:
[1] = target: PIM1 transgenic cells (Ba/F3) (Homo sapiens, UniProt P11309); assay: Proliferation inhibitory effect on PIM1 transgenic cells; type: cell-based, mouse; conditions: proliferation inhibition, 72 hours, Cell Counting Kit-8, read-out: PIM1 IC50
Outline: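 Mouse Ba/F3 pro-B cells were retrovirally transduced with human PIM1 so that their proliferation depends on PIM1. Cells were treated with compound at 1–10000 nM final for 72 h, then read by CCK-8 (OD450−OD650). Inhibition was set against DMSO (0%) and no-cell blank (100%), and IC50 was obtained by two-parameter logistic regression.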

[2] = target: T1, PIM1 serine/threonine kinase (Homo sapiens, UniProt P11309); assay: PIM1 serine/threonine kinase inhibitory effect; type: biochemical; conditions: PIM1 serine/threonine kinase activity; ATP 40 μM; 30° C., 30 minutes
T1 construct: purchased Carna Bioscience, Inc
Outline: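 Recombinant PIM1 (0.15 μg/ml final) with 0.5 μM biotinylated substrate and 40 μM ATP in pH 7.0 HEPES/MgCl2 buffer, 30 min at 30° C. Compound range was 0.01–10000 nM final, n=2. HTRF detection with streptavidin-XL665 and anti-phospho antibody-cryptate, 1 h; IC50 from non-linear regression of the 665/620 ratio.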

[3] = test system: graft-versus-host disease model CB6F1 mice; assay: Lymphocyte proliferation inhibitory effect using graft-versus-host disease model animals (splenomegaly formation); type: in vivo; conditions: Mus musculus, 240 h, oral, twice a day for 10 days, GVHD model CB6F1 mice, read-out: Inhibition rate (%) (splenomegaly formation); for inhibition in vivo at 6 mg/kg: single dose 6 mg/kg; for inhibition in vivo at 20 mg/kg: single dose 20 mg/kg; for inhibition in vivo at 10 mg/kg: single dose 10 mg/kg; for inhibition in vivo at 30 mg/kg: single dose 30 mg/kg
Experimental: BALB/c mice (8-week-aged female) were euthanized, and then the spleen was removed from each mouse. Then, hemolysis treatment was performed to isolate spleen cells. The obtained spleen cells were intravenously transplanted into CB6F1 mice (8-week-aged female), which are C57BL/6 and BALB/c F1 mice, to prepare a model, and splenomegaly was induced. For transplantation, spleen cells for 1.2 BALB/c mouse were used for one CB6F1 mouse.
Each test substance shown in Table 64 was weighed and dissolved in a 0.5% methyl cellulose solution, thereby preparing test substance solutions of 0.3 to 10 mg/mL.
A vehicle (0.5% methyl cellulose solution) or test substance was orally administered to each CB6F1 mouse after transplantation at a dose of 3 to 50 mg/kg in terms of body weight twice a day for 10 days from the day after transplantation. The mouse was euthanized on the 11th day from the start of administration, then the spleen was removed therefrom, and the wet weight of the spleen was measured. For each of CB6F1 mice that had not undergone transplantation as a control group, the wet weight of the spleen was also measured.
The splenomegaly formation inhibition rate when the spleen weights of the mice to which the vehicle was administered after transplantation and the mice on which transplantation had not been performed were 0% and 100%, respectively, was calculated.

T1 sequence (P11309 whole entry): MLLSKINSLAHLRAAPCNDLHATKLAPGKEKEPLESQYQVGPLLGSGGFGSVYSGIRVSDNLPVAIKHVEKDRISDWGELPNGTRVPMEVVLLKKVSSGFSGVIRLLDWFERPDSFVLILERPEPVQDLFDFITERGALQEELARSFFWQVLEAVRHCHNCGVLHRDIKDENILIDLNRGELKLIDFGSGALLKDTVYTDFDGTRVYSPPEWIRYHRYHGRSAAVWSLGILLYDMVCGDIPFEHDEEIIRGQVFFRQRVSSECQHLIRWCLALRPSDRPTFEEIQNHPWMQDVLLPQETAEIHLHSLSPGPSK
Chain of PIM1 transgenic cells (Ba/F3) (P11309 whole entry, stated change not applied): as the sequence (P11309 whole entry) above

Structure (SMILES)	GI50 [1] [nM]	IC50 [2] [nM]	inhibition in vivo at 6 mg/kg [3] [%]	inhibition in vivo at 20 mg/kg [3] [%]	inhibition in vivo at 10 mg/kg [3] [%]	inhibition in vivo at 30 mg/kg [3] [%]	inhibition in vivo at 50 mg/kg ([3]; single dose 50 mg/kg) [%]
C[C@H](Nc1cc(-c2n[nH]c(=O)o2)ccc1C(F)(F)F)[C@@H]1C[C@H](N)C1(C)C [Example 137, 5-[3-({(1S)-1-[(1R,3S)-3-amino-2,2-dimethylcyclobutyl]ethyl}amino)-4-(trifluoromethyl)phenyl]-1,3,4-oxadiazol-2(3H)-one hydrochloride]	27	2.2	–	–	–	47.5	–
C[C@@H]1CNCC[C@@H]1[C@H](C)Nc1cc(-c2n[nH]c(=O)o2)cc(F)c1OC(F)F [Example 214, 5-[4-(difluoromethoxy)-3-fluoro-5-({(1S)-1-[(3S,4S)-3-methylpiperidin-4-yl]ethyl}amino)phenyl]-1,3,4-oxadiazol-2(3H)-one]	34	1.8	–	25.3	23.3	–	–
C[C@H](Nc1cc(-c2n[nH]c(=O)o2)ccc1C(F)(F)F)C1(F)CCNCC1 [Example 125, 5-[3-{[(1S)-1-(4-fluoropiperidin-4-yl)ethyl]amino}-4-(trifluoromethyl)phenyl]-1,3,4-oxadiazol-2(3H)-one hydrochloride]	40	2.9	–	–	–	45.1	–
C[C@H](Nc1cc(-c2n[nH]c(=O)o2)cc(Br)c1Cl)C1CCNCC1 [Example 97, 5-(3-bromo-4-chloro-5-{[(1S)-1-(piperidin-4-yl)ethyl]amino}phenyl)-1,3,4-oxadiazol-2(3H)-one dihydrochloride]	55	1.2	–	–	–	–	33
Cc1c(F)cc(-c2n[nH]c(=O)o2)cc1N[C@@H](C)[C@H]1CC[C@H](N)CC1 [Example 172, 5-[3-({(1S)-1-[(1r,4S)-4-aminocyclohexyl]ethyl}amino)-5-fluoro-4-methylphenyl]-1,3,4-oxadiazol-2(3H)-one dihydrochloride]	49	2.5	–	19.3	–	–	–
C[C@@H]1CNCC[C@@H]1[C@H](C)Nc1cc(-c2n[nH]c(=O)o2)ccc1C(F)(F)F [Example 217, 5-[3-({(1S)-1-[(3S,4S)-3-methylpiperidin-4-yl]ethyl}amino)-4-(trifluoromethyl)phenyl]-1,3,4-oxadiazol-2(3H)-one]	26	2.8	–	41.7	36.3	–	–
C[C@H](Nc1cc(-c2n[nH]c(=O)o2)cc(F)c1Cl)[C@H]1CC[C@H](N)CC1 [Example 177, 5-[3-({(1S)-1-[(1r,4S)-4-aminocyclohexyl]ethyl}amino)-4-chloro-5-fluorophenyl]-1,3,4-oxadiazol-2(3H)-one hydrochloride]	26	0.8	–	39.2	23.7	–	–
C[C@H](Nc1cc(-c2n[nH]c(=O)o2)ccc1Cl)[C@@H]1C[C@H](N)C1(C)C [Example 158, 5-[3-({(1S)-1-[(1R,3S)-3-amino-2,2-dimethylcyclobutyl]ethyl}amino)-4-chlorophenyl]-1,3,4-oxadiazol-2(3H)-one hydrochloride]	37	3.3	–	–	–	–	–
N[C@H]1CC[C@@H](COc2cc(-c3n[nH]c(=O)o3)ccc2Cl)CC1 [Example 243, 5-(3-{[(1s,4s)-4-aminocyclohexyl]methoxy}-4-chlorophenyl)-1,3,4-oxadiazol-2(3H)-one]	150	4.1	–	–	–	–	–
O=c1[nH]nc(-c2ccc(C(F)(F)F)c(NCC3C4CCC3CNC4)c2)o1 (stereo not shown) [Example 133, 5-[3-{[(3-azabicyclo[3.2.1]octan-8-yl)methyl]amino}-4-(trifluoromethyl)phenyl]-1,3,4-oxadiazol-2(3H)-one hydrochloride]	200	8	–	–	–	–	–
O=c1[nH]nc(-c2ccc(C(F)(F)F)c(NC[C@H]3CCNC[C@H]3F)c2)o1 [Example 126, 5-[3-({[(3S,4R)-3-fluoropiperidin-4-yl]methyl}amino)-4-(trifluoromethyl)phenyl]-1,3,4-oxadiazol-2(3H)-one hydrochloride]	600	11	–	–	–	–	–
CN[C@H]1C[C@@H]([C@H](C)Nc2cc(-c3n[nH]c(=O)o3)cc(F)c2C(F)(F)F)C1 [Example 203, 5-[3-fluoro-5-({(1S)-1-[(1s,3R)-3-(methylamino)cyclobutyl]ethyl}amino)-4-(trifluoromethyl)phenyl]-1,3,4-oxadiazol-2(3H)-one hydrochloride]	54	3.6	–	–	–	–	–
CC[C@H](Nc1cc(-c2n[nH]c(=O)o2)cc(F)c1C(F)(F)F)[C@H]1CC[C@H](N)CC1 [Example 198, 5-[3-({(1S)-1-[(1r,4S)-4-aminocyclohexyl]propyl}amino)-5-fluoro-4-(trifluoromethyl)phenyl]-1,3,4-oxadiazol-2(3H)-one]	100	3.5	–	–	–	–	–
C[C@H](Nc1cc(-c2n[nH]c(=O)o2)ccc1C(F)(F)F)[C@H]1C[C@@H](N)C1 [Example 145, 5-[3-({(1S)-1-[(1s,3R)-3-aminocyclobutyl]ethyl}amino)-4-(trifluoromethyl)phenyl]-1,3,4-oxadiazol-2(3H)-one hydrochloride]	61	4	–	35.6	27.3	–	–
C[C@H](Nc1cc(-c2n[nH]c(=O)o2)cc(F)c1OC(F)F)C1(C)CCNCC1 [Example 213, 5-[4-(difluoromethoxy)-3-fluoro-5-{[(1S)-1-(4-methylpiperidin-4-yl)ethyl]amino}phenyl]-1,3,4-oxadiazol-2(3H)-one]	85	2	–	–	–	–	–

These reach a lower GI50 [1]. Values come first.

GI50 [1] [nM]	IC50 [2] [nM]	Structure (SMILES)	inhibition in vivo at 6 mg/kg [3] [%]	inhibition in vivo at 20 mg/kg [3] [%]	inhibition in vivo at 10 mg/kg [3] [%]	inhibition in vivo at 30 mg/kg [3] [%]	inhibition in vivo at 50 mg/kg ([3]; single dose 50 mg/kg) [%]
19	5.1	CC[C@@H]1CNCC[C@@H]1[C@H](C)Nc1cc(-c2n[nH]c(=O)o2)cc(F)c1C [Example 229, 5-[3-({(1S)-1-[(3S,4S)-3-ethylpiperidin-4-yl]ethyl}amino)-5-fluoro-4-methylphenyl]-1,3,4-oxadiazol-2(3H)-one]	14.4	35.1	–	–	–
15	1.3	C[C@@H]1CNCC[C@@H]1[C@H](C)Nc1cc(-c2n[nH]c(=O)o2)cc(F)c1C(F)(F)F [Example 210, 5-[3-fluoro-5-({(1S)-1-[(3S,4S)-3-methylpiperidin-4-yl]ethyl}amino)-4-(trifluoromethyl)phenyl]-1,3,4-oxadiazol-2(3H)-one]	–	48.4	44.9	–	–
24	7.7	Cc1c(F)cc(-c2n[nH]c(=O)o2)cc1N[C@@H](C)[C@H]1CCNC[C@H]1F [Example 227, 5-[3-fluoro-5-({(1S)-1-[(3S,4R)-3-fluoropiperidin-4-yl]ethyl}amino)-4-methylphenyl]-1,3,4-oxadiazol-2(3H)-one]	16.7	32.7	–	–	–
15	4.7	Cc1c(F)cc(-c2n[nH]c(=O)o2)cc1N[C@@H](C)[C@H]1CCNC[C@H]1C [Example 228]	36.7	33.3	–	–	–
17	1.8	C[C@H](Nc1cc(-c2n[nH]c(=O)o2)cc(F)c1C(F)(F)F)[C@H]1CC[C@H](N)CC1 [Example 151, 5-[3-({(1S)-1-[(1r,4S)-4-aminocyclohexyl]ethyl}amino)-5-fluoro-4-(trifluoromethyl)phenyl]-1,3,4-oxadiazol-2(3H)-one hydrochloride]	–	40.3	33.8	–	–
19	1.5	C[C@H](Nc1cc(-c2n[nH]c(=O)o2)ccc1C(F)(F)F)[C@H]1CC[C@H](N)CC1 [Example 106, 5-[3-({(1S)-1-[(1r,4S)-4-aminocyclohexyl]ethyl}amino)-4-(trifluoromethyl)phenyl]-1,3,4-oxadiazol-2(3H)-one hydrochloride]	–	–	–	39.8	–
18	1.6	C[C@H](Nc1cc(-c2n[nH]c(=O)o2)cc(Cl)c1Cl)[C@H]1CC[C@H](N)CC1 [Example 174, 5-[3-({(1S)-1-[(1r,4S)-4-aminocyclohexyl]ethyl}amino)-4,5-dichlorophenyl]-1,3,4-oxadiazol-2(3H)-one hydrochloride]	–	–	–	–	–

Source: patent publication US20220024921A1, “1,3,4-OXADIAZOLONE COMPOUND AND PHARMACEUTICAL” (NIPPON SHINYAKU CO., LTD., priority 2018, published 2022)
